The test relates to Immortalized human bronchial epithelial (HBE) cells. The test is classed as cell-based. Particulars: HBE cells with S1 peptide; EVs, drugs alone or combined.

For the molecule `C=C(C)[C@@H]1CCC(C)=C[C@H]1c1c(O)cc(CCCCC)cc1O` [CBD, cannabidiol], the “reduction in inflammation (TNFα expression)” value is recorded as “modest reduction in inflammation”. `CN(C)C(=N)N=C(N)N` [metformin]: the “reduction in inflammation (TNFα expression)” value is “modest reduction in inflammation”.

The values above are taken from US20230105667A1, “MESENCHYMAL STROMAL CELLS AND EXTRACELLULAR VESICLES FOR TREATING VIRAL INFECTIONS, INFLAMMATION, AND TISSUE FIBROSIS” (EXOSTEM BIOTEC LTD., priority 2020, published 2023).
